Measured values from patent US20020062491A1, “Method of producing primary hepatocellular carcinoma-bearing model animals” (WELFIDE CORPORATION, priority 2000, published 2002).

Columns and labels:
Type in all cases: in vivo, male Fischer 344 rats
[1] = Survival, final body weight and liver weight, 8-week study (Experimental Example 1); conditions: mean ± spread; DEN 95 mg/kg i.p. day 1, 8, 15; PB 60 mg/kg i.p. three times a week from week 5; PH day 28
Description: The eighty six male 4-week-old Fischer 344 rats used in this study were obtained from Charles River Japan, Inc. (Kanagawa). Grouping of the rats was performed according to the latest body weight. The animals were housed, two/cage in a climate-controlled animal room at temperature of 24±3° C., relative humidity of 55±15%, and ventilation rate of 10-20 times/h with 12-hour illumination, and allowed free access to the prescribed diets in every group and tap water.
To the animals in group 1, only a CRF-1 basal diet (Oriental Yest Co., Ltd., Tokyo) was fed. To the ones in group 2, only a CDAA (Dyets Inc., USA) diet was fed. The CDAA diet, whose composition is shown in Table 1, was fed from the day before the 1st administration day of DEN (day 1) and was stored under refrigeration until use. To the ones in group 3, a CRF-1 basal diet was fed and DEN was treated. The dose of DEN was set at 95 mg/kg body weight (2 ml/kg body weight) and rats were intraperitoneally treated once a week for the first three weeks (day 1, 8 and 15). To the ones in group 4, a CDAA diet was fed and DEN was treated. To the ones in group 5, a CRF-1 basal diet was fed and given DEN and PH. In the partial hepatectomy (PH), the left lobe and the right and left sublobes of the median lobe of the liver were excised. […]
All examination data were statistically evaluated by F-t test. […]

liver = assay: Autopsy and histopathological examination of liver (H.E.-stained specimens); conditions: eight weeks; for Histopathological findings of H.E.-stained liver, in words: comparator group as stated in the value (groups 2 and 3: findings not observed in group 1 CRF-1)
Description: (§1) To the animals in group 1, only a CRF-1 basal diet (Oriental Yest Co., Ltd., Tokyo) was fed. To the ones in group 2, only a CDAA (Dyets Inc., USA) diet was fed. The CDAA diet, whose composition is shown in Table 1, was fed from the day before the 1st administration day of DEN (day 1) and was stored under refrigeration until use. To the ones in group 3, a CRF-1 basal diet was fed and DEN was treated. The dose of DEN was set at 95 mg/kg body weight (2 ml/kg body weight) and rats were intraperitoneally treated once a week for the first three weeks (day 1, 8 and 15). To the ones in group 4, a CDAA diet was fed and DEN was treated. To the ones in group 5, a CRF-1 basal diet was fed and given DEN and PH. In the partial hepatectomy (PH), the left lobe and the right and left sublobes of the median lobe of the liver were excised. PH was carried out on the day before the first administration of PB (day 28). To the ones in group 6, a CRF-1 basal diet was fed and given DEN, PH, and PB. The dose of PB was set at 60 mg/kg body weight (2 ml/kg body weight) and rats were intraperitoneally treated three times a week from week 5 (day 29, 32, 34, 36, 39, 41, 43, 46, 48, 50, 53, and 55). To the ones in group 7, a CDAA diet was fed and given DEN and PH. To the ones in group 8, a CDAA diet was fed and given DEN and PB. To the ones in group 9, a CDAA diet was fed and given DEN, PH, and PB. This experiment was started on Apr. 10, 1997.
At eight weeks (day 60-63), autopsy was performed after the animals were sacrificed by exsanguination under ether anesthesia. After the liver had been excised and fixed in 10% neutral buffered formalin fixative, paraffin sections and H.E.-stained specimens were prepared and microscopic examination was carried out.

GST-P-positive foci = assay: Analysis of GST-P-stained liver specimens (GST-P-positive foci); conditions: for Focal area (GST-P positive) / Number of foci (GST-P positive) / Number of foci, focal size 0-0.03 mm^2 / Number of foci, focal size 0.03-0.1 mm^2 / Number of foci, focal size 0.1-0.3 mm^2 / Number of foci, focal size 0.3-1.0 mm^2 / Number of foci, focal size 1.0-3.0 mm^2 / Number of foci, focal size 3.0-10.0 mm^2 / Number of foci, focal size 10.0-30.0 mm^2 / Number of foci, focal size 30.0-100.0 mm^2 / Number of foci, focal size 100.0- mm^2: eight weeks; for GST-P-positive foci, comparison between groups in words: group 4 vs group 2, groups 5, 6 vs group 3, groups 7, 8, 9 vs group 4
Description: as §1
Immunohistochemical staining using polyclonal antibodies against GST-P was applied to facilitate quantitative evaluation of altered hepatocellular foci. Paraffin sections were stained immunohistochemically using the labeled streptavidin-biotin-peroxidase complex (LSAB) method for binding of rabbit anti-rat GST-Yp polyclonal antibody (1:1000; BIO PREP, IRELAND). The analytical procedure for the GST-P-stained specimens was as follows. Photographs (x10) of GST-P-stained specimens of whole cross-section of liver were taken. Photographs were jointed to construct complete cross-sectional image. GST-P-positive foci (hereinafter foci) were painted out with felt pen. Cross-sectional images were processed by Image Scanner (GT-6500, SEIKO EPSONCO., Ltd., Nagano) (using EpScan Mac). The area of each focus and total cross-sectional area of each image were measured using Adobe Photoshop and NIH image. Number of foci per unit area and focal area per unit area were calculated from data on number of foci, mean focal area, total focal area, and total organ area.
All examination data were statistically evaluated by F-t test. First, equal dispersion was tested by F test (significance level 5%). Student-t test was carried out where population variance was judged to be equal, and Welch-t test where it was judged different. Bilateral significance level was set at 5% and 1%.

SMILES | Body weight (day 57) [1] | Altered hepatocellular foci, number of animals by grade (±, +, 2+, 3+) (liver; H.E.-stained liver) | Vacuolar degeneration, number of animals by grade (±, +, 2+, 3+) (liver; H.E.-stained liver) | Histopathological findings of H.E.-stained liver, in words (liver) | Focal area (GST-P positive) (GST-P-positive foci) [CT mm^2/mm^2Liver] | Number of foci (GST-P positive) (GST-P-positive foci) | Number of foci, focal size 0-0.03 mm^2 (GST-P-positive foci) | Number of foci, focal size 0.03-0.1 mm^2 (GST-P-positive foci) [CT /mm^2Liver] | Number of foci, focal size 0.1-0.3 mm^2 (GST-P-positive foci) | Number of foci, focal size 0.3-1.0 mm^2 (GST-P-positive foci) [CT /mm^2Liver] | Number of foci, focal size 1.0-3.0 mm^2 (GST-P-positive foci) | Number of foci, focal size 3.0-10.0 mm^2 (GST-P-positive foci) | Number of foci, focal size 10.0-30.0 mm^2 (GST-P-positive foci) | Number of foci, focal size 30.0-100.0 mm^2 (GST-P-positive foci) | Number of foci, focal size 100.0- mm^2 (GST-P-positive foci) | GST-P-positive foci, comparison between groups in words (GST-P-positive foci)
CCN(CC)N=O [CRF-1+DEN+PH, Diethylnitrosoamine] | 263.85 ± 3.96 ** * g | 4 | 4 | altered hepatocellular foci were more marked than in group 3 (CRF-1+DEN) | 0.015 ± 0.006 | 0.467 ± 0.162 . CT /mm^2Liver | 0.335 ± 0.124 . CT /mm^2Liver | 0.105 ± 0.030 | 0.023 ± 0.014 . CT /mm^2Liver | 0.003 ± 0.002 | 0.000 ± 0.000 . CT /mm^2Liver | 0.000 ± 0.000 . CT /mm^2Liver | 0.000 ± 0.000 . CT /mm^2Liver | 0.000 ± 0.000 . CT /mm^2Liver | 0.000 ± 0.000 . CT /mm^2Liver | focal areas were elevated
CCN(CC)N=O [CRF-1+DEN, Diethylnitrosoamine] | 257.52 ± 5.11 CT g |  |  | slight vacuolar degeneration and altered hepatocellular foci | 0.006 ± 0.002 | 0.350 ± 0.083 CT /mm^2Liver | 0.312 ± 0.070 CT /mm^2Liver | 0.035 ± 0.021 | 0.003 ± 0.005 CT /mm^2Liver | 0.000 ± 0.000 | 0.000 ± 0.000 CT /mm^2Liver | 0.000 ± 0.000 CT /mm^2Liver | 0.000 ± 0.000 CT /mm^2Liver | 0.000 ± 0.000 CT /mm^2Liver | 0.000 ± 0.000 CT /mm^2Liver | foci were observed
